From patent US20240158446A1, “CYCLIC COMPOUND HAVING SELECTIVE INHIBITORY ACTION ON KRAS OVER HRAS AND NRAS” (CHUGAI SEIYAKU KABUSHIKI KAISHA, priority 2021, published 2024)

Tests used:
[1] = target: GDP-bound HRAS wild-type protein (Homo sapiens, UniProt P01112); assay: Binding to HRAS by surface plasmon resonance (SPR), Single Cycle Kinetics; details: ratio of KD for GDP-bound HRAS wild-type protein to KD for KRAS, SPR
[2] = test system: human lung cancer strain NCI-H441; assay: cells; details: NCI-H441, 96 h, read-out: NCI-H441 IC50 (nM), NCI-H441 cell proliferation, 4 days, CellTiter-Glo;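 note: cell proliferation inhibition after four days measured by CellTiter-Glo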
[3] = target: GDP-bound NRAS wild-type protein (Homo sapiens, UniProt P01111); assay: Binding to NRAS by surface plasmon resonance (SPR), Single Cycle Kinetics; details: ratio of KD for GDP-bound NRAS wild-type protein to KD for KRAS, SPR
Sequence of GDP-bound NRAS wild-type protein (P01111 whole entry): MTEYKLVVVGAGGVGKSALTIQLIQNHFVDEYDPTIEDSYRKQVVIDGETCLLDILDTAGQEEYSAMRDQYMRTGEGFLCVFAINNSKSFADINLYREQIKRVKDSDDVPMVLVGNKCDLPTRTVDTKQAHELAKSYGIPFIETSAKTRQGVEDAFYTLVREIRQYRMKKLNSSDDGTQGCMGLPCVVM

Sequence of GDP-bound HRAS wild-type protein (P01112 whole entry): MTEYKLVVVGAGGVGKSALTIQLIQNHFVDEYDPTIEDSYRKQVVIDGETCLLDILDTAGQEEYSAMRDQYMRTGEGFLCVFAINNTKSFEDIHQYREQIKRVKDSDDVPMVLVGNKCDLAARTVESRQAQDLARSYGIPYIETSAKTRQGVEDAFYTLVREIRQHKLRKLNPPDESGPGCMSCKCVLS

SMILES	IC50 [2]	HRAS/KRAS (KD ratio) [1]	NRAS/KRAS (KD ratio) [3]
CCO[C@@H]1C[C@H]2C(=O)NC3(CC(C)(C)C3)C(=O)N(C)[C@@H](C3CCCC3)C(=O)N(C)[C@H](C(=O)N(C)C)CC(=O)N(C)[C@@H](CC3CC3)C(=O)N[C@@H]([C@@H](C)CC)C(=O)N(C)CC(=O)N(C)[C@H]3C/C=C\CCN(C3=O)[C@@H](Cc3ccc(C)cc3)C(=O)N(C)CC(=O)N[C@@H](CCc3ccc(C(F)(F)F)c(OC)c3)C(=O)N2C1 [PP1903]	5.5 nM	B (a compound having 3 or more and less than 10 is denoted as B)	A (a compound having 10 or more and less than 20 is denoted as A)
CCO[C@@H]1C[C@H]2C(=O)NC3(CCC3)C(=O)N(C)[C@@H](C3CCCC3)C(=O)N(C)[C@H](C(=O)N(C)CC)CC(=O)N(C)[C@@H](CC(C)C)C(=O)N[C@@H]([C@@H](C)CC)C(=O)N(C)CC(=O)N(C)[C@H]3C/C=C\CCN(C3=O)[C@@H](Cc3ccc(C)cc3)C(=O)N(C)CC(=O)N[C@@H](CCc3ccc(C(F)(F)F)c(OC)c3)C(=O)N2C1 [PP1910]	9.7 nM	B (a compound having 3 or more and less than 10 is denoted as B)	A (a compound having 10 or more and less than 20 is denoted as A)
CCO[C@@H]1C[C@H]2C(=O)NC(C)(C)C(=O)N(C)[C@@H](C3CCCC3)C(=O)N(C)[C@H](C(=O)N(C)CC)CC(=O)N(C)[C@@H](CC(C)C)C(=O)N[C@@H]([C@@H](C)CC)C(=O)N(C)CC(=O)N(C)[C@H]3C/C=C\CCN(C3=O)[C@@H](Cc3ccc(C(F)(F)F)cc3)C(=O)N(C)CC(=O)N[C@@H](CCc3cc(F)c(C(F)(F)F)c(F)c3)C(=O)N2C1 [PP1937]	6.8 nM	A (a compound having 10 or more and less than 20 is denoted as A)	A (a compound having 10 or more and less than 20 is denoted as A)
CCCN(C)C(=O)[C@@H]1CC(=O)N(C)[C@@H](CC(C)C)C(=O)N[C@@H]([C@@H](C)CC)C(=O)N(C)CC(=O)N(C)[C@H]2C/C=C\CCN(C2=O)[C@@H](Cc2ccc(C(F)(F)F)cc2)C(=O)N(C)CC(=O)N[C@@H](CCc2cc(F)c(C(F)(F)F)c(F)c2)C(=O)N2C[C@H](OCC)C[C@H]2C(=O)NC2(COC2)C(=O)N(C)[C@@H](C2CCCC2)C(=O)N1C [PP1938]	34.6 nM	A (a compound having 10 or more and less than 20 is denoted as A)	AA (a compound having 20 or more is denoted as AA)
CC[C@H](C)[C@@H]1NC(=O)[C@H](C2CC2)N(C)C(=O)C[C@@H](C(=O)N(C)CC)N(C)C(=O)[C@H](C2CCCC2)N(C)C(=O)C2(CC(C)(C)C2)NC(=O)[C@@H]2C[C@H](C)CN2C(=O)[C@H](CCc2cc(F)c(C(F)(F)F)c(F)c2)NC(=O)CN(C)C(=O)[C@H](Cc2ccc(C(F)(F)F)cc2)N2CC/C=C\C[C@@H](C2=O)N(C)C(=O)CN(C)C1=O [PP1980]	30.1 nM	B (a compound having 3 or more and less than 10 is denoted as B)	A (a compound having 10 or more and less than 20 is denoted as A)
CCCN(C)C(=O)[C@@H]1CC(=O)N(C)[C@@H](C2CCC2)C(=O)N[C@@H]([C@@H](C)CC)C(=O)N(C)CC(=O)N(C)[C@H]2C/C=C\CCN(C2=O)[C@@H](Cc2ccc(C(F)(F)F)cc2)C(=O)N(C)CC(=O)N[C@@H](CCc2cc(F)c(C(F)(F)F)c(F)c2)C(=O)N2C[C@H](OCC)C[C@H]2C(=O)NC2(CCC2)C(=O)N(C)[C@@H](C2CCCC2)C(=O)N1C [PP1998]	16.1 nM	B (a compound having 3 or more and less than 10 is denoted as B)	A (a compound having 10 or more and less than 20 is denoted as A)
CCCN(C)C(=O)[C@@H]1CC(=O)N(C)[C@@H](CC(F)F)C(=O)N[C@@H]([C@@H](C)CC)C(=O)N(C)CC(=O)N(C)[C@H]2C/C=C\CCN(C2=O)[C@@H](Cc2ccc(C(F)(F)F)cc2)C(=O)N(C)CC(=O)N[C@@H](CCc2cc(F)c(C(F)(F)F)c(F)c2)C(=O)N2C[C@@H](C)C[C@H]2C(=O)NC2(CCC2)C(=O)N(C)[C@@H](C2CCCC2)C(=O)N1C [PP2000]	17.7 nM	B (a compound having 3 or more and less than 10 is denoted as B)	A (a compound having 10 or more and less than 20 is denoted as A)
CCCOC[C@H]1C(=O)N[C@@H]([C@@H](C)CC)C(=O)N(C)CC(=O)N(C)[C@H]2C/C=C\CCN(C2=O)[C@@H](Cc2ccc(C(F)(F)F)cc2)C(=O)N(C)CC(=O)N[C@@H](CCc2cc(F)c(C(F)(F)F)c(F)c2)C(=O)N2C[C@@H](C)C[C@H]2C(=O)NC2(CCC2)C(=O)N(C)[C@@H](C2CCCC2)C(=O)N(C)[C@H](C(=O)N(C)CCC)CC(=O)N1C [PP2008]	15.2 nM	A (a compound having 10 or more and less than 20 is denoted as A)	A (a compound having 10 or more and less than 20 is denoted as A)
CCO[C@@H]1C[C@H]2C(=O)NC3(CCC3)C(=O)N(C)[C@@H](C3CCCC3)C(=O)N(C)[C@H](C(=O)N(C)CC)CC(=O)N(C)[C@@H](C3CCC3)C(=O)N[C@@H]([C@@H](C)CC)C(=O)N(C)CC(=O)N(C)[C@H]3C/C=C\CCN(C3=O)[C@@H](Cc3ccc(C(F)(F)F)cc3)C(=O)N(C)CC(=O)N[C@@H](CCc3ccc(C(F)(F)F)c(OC)c3)C(=O)N2C1 [PP2022]	2.7 nM	A (a compound having 10 or more and less than 20 is denoted as A)	A (a compound having 10 or more and less than 20 is denoted as A)
CCCN(C)C(=O)[C@@H]1CC(=O)N(C)[C@@H](C2CCC2)C(=O)N[C@@H]([C@@H](C)CC)C(=O)N(C)CC(=O)N(C)[C@H]2C/C=C\CCN(C2=O)[C@@H](Cc2ccc(C(F)(F)F)cc2)C(=O)N(C)CC(=O)N[C@@H](CCc2ccc(C(F)(F)F)c(OC)c2)C(=O)N2C[C@H](OCC)C[C@H]2C(=O)NC2(CCC2)C(=O)N(C)[C@@H](C2CCCC2)C(=O)N1C [PP2023]	10.5 nM	B (a compound having 3 or more and less than 10 is denoted as B)	A (a compound having 10 or more and less than 20 is denoted as A)

Second part, led by results:

IC50 [2]	SMILES	HRAS/KRAS (KD ratio) [1]	NRAS/KRAS (KD ratio) [3]
7.6 nM	CC[C@H](C)[C@@H]1NC(=O)[C@H](CC2CC2)N(C)C(=O)C[C@@H](C(=O)N(C)C)N(C)C(=O)[C@H](C2CCCC2)N(C)C(=O)C2(CC(C)(C)C2)NC(=O)[C@@H]2C[C@@H](C)CN2C(=O)[C@H](CCc2ccc(C(F)(F)F)c(OC)c2)NC(=O)CN(C)C(=O)[C@H](Cc2ccc(C)cc2)N2CC/C=C\C[C@@H](C2=O)N(C)C(=O)CN(C)C1=O [PP1901]	B (a compound having 3 or more and less than 10 is denoted as B)	A (a compound having 10 or more and less than 20 is denoted as A)
12.5 nM	CC[C@H](C)[C@@H]1NC(=O)[C@H](CC2CC2)N(C)C(=O)C[C@@H](C(=O)N(C)CC)N(C)C(=O)[C@H](C2CCCC2)N(C)C(=O)C2(CC(C)(C)C2)NC(=O)[C@@H]2C[C@@H](C)CN2C(=O)[C@H](CCc2ccc(C(F)(F)F)c(OC)c2)NC(=O)CN(C)C(=O)[C@H](Cc2ccc(C)cc2)N2CC/C=C\C[C@@H](C2=O)N(C)C(=O)CN(C)C1=O [PP1902]	A (a compound having 10 or more and less than 20 is denoted as A)	A (a compound having 10 or more and less than 20 is denoted as A)
14.2 nM	CCCOC[C@H]1C(=O)N[C@@H]([C@@H](C)CC)C(=O)N(C)CC(=O)N(C)[C@H]2C/C=C\CCN(C2=O)[C@@H](Cc2ccc(C(F)(F)F)cc2)C(=O)N(C)CC(=O)N[C@@H](CCc2ccc(C(F)(F)F)c(OC)c2)C(=O)N2C[C@@H](C)C[C@H]2C(=O)NC2(CC(C)(C)C2)C(=O)N(C)[C@@H](C2CCCC2)C(=O)N(C)[C@H](C(=O)N(C)C)CC(=O)N1C [PP1997]	B (a compound having 3 or more and less than 10 is denoted as B)	A (a compound having 10 or more and less than 20 is denoted as A)
2.5 nM	CCCOC[C@H]1C(=O)N[C@@H]([C@@H](C)CC)C(=O)N(C)CC(=O)N(C)[C@H]2C/C=C\CCN(C2=O)[C@@H](Cc2ccc(C(F)(F)F)cc2)C(=O)N(C)CC(=O)N[C@@H](CCc2ccc(C(F)(F)F)c(OC)c2)C(=O)N2C[C@H](OCC)C[C@H]2C(=O)NC2(CCC2)C(=O)N(C)[C@@H](C2CCCC2)C(=O)N(C)[C@H](C(=O)N(C)CCC)CC(=O)N1C [PP2017]	A (a compound having 10 or more and less than 20 is denoted as A)	A (a compound having 10 or more and less than 20 is denoted as A)
10.1 nM	CCCN(C)C(=O)[C@@H]1CC(=O)N(C)[C@@H](CC(F)F)C(=O)N[C@@H]([C@@H](C)CC)C(=O)N(C)CC(=O)N(C)[C@H]2C/C=C\CCN(C2=O)[C@@H](Cc2ccc(C(F)(F)F)cc2)C(=O)N(C)CC(=O)N[C@@H](CCc2ccc(C(F)(F)F)c(OC)c2)C(=O)N2C[C@@H](C)C[C@H]2C(=O)NC2(CCC2)C(=O)N(C)[C@@H](C2CCCC2)C(=O)N1C [PP2024]	B (a compound having 3 or more and less than 10 is denoted as B)	A (a compound having 10 or more and less than 20 is denoted as A)
13.4 nM	CCCN(C)C(=O)[C@@H]1CC(=O)N(C)[C@@H](COCC)C(=O)N[C@@H]([C@@H](C)CC)C(=O)N(C)CC(=O)N(C)[C@H]2C/C=C\CCN(C2=O)[C@@H](Cc2ccc(C(F)(F)F)cc2)C(=O)N(C)CC(=O)N[C@@H](CCc2ccc(C(F)(F)F)c(OC)c2)C(=O)N2C[C@@H](C)C[C@H]2C(=O)NC2(CCC2)C(=O)N(C)[C@@H](C2CCCC2)C(=O)N1C [PP2025]	B (a compound having 3 or more and less than 10 is denoted as B)	A (a compound having 10 or more and less than 20 is denoted as A)
